# Laboratory results: patent publication US4510132A, “Compounds for use in antibacterial therapy” (priority 1982, dated 1985)
# Tests used:
# [1] = test system: E. coli strain IH 3080 (018:K1); assay: MIC of antibiotics in the presence of polymyxin nonapeptide, microtiter plate, E. coli; format: cell-based; conditions: for factor by which PMBN sensitized the strain to the antibiotic: E. coli 018:K1 strain IH 3080, from Table 2; for MIC of the antibiotic: E. coli IH 3080; for MIC of fusidic acid: E. coli
# Method: (§1) Methods. Smooth Salmonella typhimurium LT2 strain SL 696 (Wilkinson et al 1972 J. Gen. Microbiol. 70,527) was used as indicator organism. It was grown in Luria broth (Miller 1972. Experience in molecular genetics, Cold Spring Harbor Laboratory, New York) at 37° C. in a rotary shaker (220 rpm) into early logarithmic growth phase (Klett 40 units, Klett-Summerson colorimeter, red filter) washed with 0.9% NaCl and resuspended in 0.9% NaCl (final optical density 120 Klett units corresponding to approx. 10^9 cells/ml).
# (§2) Erythromycin ethylsuccinate stock solution was prepared by dissolving 5.5 mg of erythromycin […] with 2 ml of 96% ethanol whereafter deionized water was added to a final volume of 5.5 ml. Other antibiotics were readily dissolved in deionized water.
# (§3) Experimental procedure: Davis minimal growth medium (Sanderson et al, 1972, Bact. Rev. 36,608) containing glucose (1 g/l), casaminoacids (1 g/l. Difco), tryptophan (20 mg/l), and increasing amounts of a particular antibiotic was inoculated with 10^4 cells per ml of a fresh suspension of indicator bacteria. Aliquots (200 μl) of this inoculated medium were pipetted in wells of a microtiter plate (Titertek, CAT NO. 76-213-05, Flow Laboratories, United States). Each well already contained increasing amounts of the particular polycationic agent in 30 μl of 0.9% NaCl. The plates were sealed with adhesive tape and incubated at 37° C. for 18 h.
# Methods. The methods were those presented in Example 3 except that E. coli was used as the test organism. The E. coli strain was IH 3080 (018:K1) isolated from the cerebrospinal fluid of a neonate with meningitis.
# (§4) Methods. The known compound, polymyxin E nonapeptide (colistin E nonapeptide, Japanese patent specification Nos. 4178/1971 and 51355/1972) having the following formula: [drawing 5] where leu is leucine, thr is threonine, and dab is diaminobutyric acid, was prepared from polymyxin E (colistin) using an enzymatic ficin treatment as described by Chihara et al (Agr. Biol. Chem. 37,2455, 1973).
# [2] = test system: Salmonella typhimurium LT2 strain SL 696; assay: MIC of antibiotics in the presence of polymyxin nonapeptide, microtiter plate, S. typhimurium; format: cell-based; conditions: for minimum inhibitory concentration (MIC) of the antibiotic: S. typhimurium SL 696, 18 h; for factor by which PMBN sensitized the strain to the antibiotic: S. typhimurium strain SL 696, from Table 1; for MIC of fusidic acid: S. typhimurium
# Method: as §1, §2, §3, §4
# [3] = test system: E. coli strain IH 3080 (018:K1); assay: Experimental E. coli infection in mice, PMBN combined with erythromycin; format: in vivo, female NMRI mice; conditions: for Number of dead mice: 10 mice per group
# Source text: Methods. […] The mice were followed 7 days for deaths.
SMILES,factor by which PMBN sensitized the strain to the antibiotic [1],MIC of the antibiotic ([1]; PMBN 0 μg/ml),MIC of the antibiotic ([1]; PMBN 0.3 μg/ml),MIC of the antibiotic ([1]; PMBN 1 μg/ml),MIC of the antibiotic ([1]; PMBN 3 μg/ml),MIC of the antibiotic ([1]; PMBN 10 μg/ml),minimum inhibitory concentration (MIC) of the antibiotic ([2]; PMBN 0 μg/ml),minimum inhibitory concentration (MIC) of the antibiotic ([2]; PMBN 0.3 μg/ml),minimum inhibitory concentration (MIC) of the antibiotic ([2]; PMBN 1 μg/ml),minimum inhibitory concentration (MIC) of the antibiotic ([2]; PMBN 3 μg/ml),minimum inhibitory concentration (MIC) of the antibiotic ([2]; PMBN 10 μg/ml),minimum inhibitory concentration (MIC) of the antibiotic ([2]; PMBN 30 μg/ml),factor by which PMBN sensitized the strain to the antibiotic [2],other results
"CC1(C)S[C@@H]2[C@H](NC(=O)Cc3ccccc3)C(=O)N2[C@H]1C(=O)O [Benzylpenicillin, benzylpenicillin]",3 times,10 µg/mL,10 µg/mL,10 µg/mL,3 µg/mL,3 µg/mL,10,10,10,3,3,1,10 times,
"CCC[C@@H]1C[C@@H](C(=O)N[C@@H]([C@H]2O[C@H](SC)[C@H](O)[C@@H](O)[C@H]2O)[C@H](C)Cl)N(C)C1.Cl [Clindamycin, clindamycin hydrochloride]",,30 µg/mL,3 µg/mL,3 µg/mL,3 µg/mL,3 µg/mL,,,,,,,,
"Cc1onc(-c2ccccc2Cl)c1C(=O)N[C@@H]1C(=O)N2[C@@H]1SC(C)(C)[C@@H]2C(=O)O [Cloxacillin, cloxacillin]",100 times,> 300 µg/mL,100 µg/mL,100 µg/mL,30 µg/mL,30 µg/mL,≥ 1000,300,100,100,30,30,≥ 30 times,
"CCOC(=O)CCC(=O)O[C@H]1[C@H](O[C@@H]2[C@@H](C)[C@H](O[C@H]3C[C@@](C)(OC)[C@@H](O)[C@H](C)O3)[C@@H](C)C(=O)O[C@H](CC)[C@@](C)(O)[C@H](O)[C@@H](C)C(=O)[C@H](C)C[C@@]2(C)O)O[C@H](C)C[C@@H]1N(C)C [Erythromycin, erythromycin ethylsuccinate]",≥ 100 times,30 µg/mL,1 µg/mL,1 µg/mL,1 µg/mL,1 µg/mL,≥ 100,30,10,10,3,3,≥ 30 times,"Number of dead mice ([3]; day 1 after infection, erythromycin 10 mg/kg i.p., PMBN 10 mg/kg s.c.): 7; Number of dead mice ([3]; day 2 after infection): 8; Number of dead mice ([3]; day 3 after infection): 9; Number of dead mice ([3]; day 4 after infection): 9; Number of dead mice ([3]; day 5 after infection): 9; Number of dead mice ([3]; day 6 after infection): 9; Number of dead mice ([3]; day 7 after infection): 9; therapeutic action against the E. coli infection ([3]; mice, erythromycin 10 mg/kg, PMBN 10 mg/kg): without any therapeutic action"
"CC(=O)O[C@H]1C[C@@]2(C)[C@@H](C[C@@H](O)[C@H]3[C@@]4(C)CC[C@@H](O)[C@@H](C)[C@@H]4CC[C@@]32C)/C1=C(\CCC=C(C)C)C(=O)O [Fusidic acid, fusidic acid]",100 times,100 µg/mL,3 µg/mL,3 µg/mL,3 µg/mL,1 µg/mL,300,100,30,30,10,≥ 3,≥ 100 times,MIC of fusidic acid ([1]; PMEN 0 μg/ml): 100; MIC of fusidic acid ([1]; PMEN 0.3 μg/ml): 10; MIC of fusidic acid ([1]; PMEN 1.0 μg/ml): 10; MIC of fusidic acid ([1]; PMEN 3.0 μg/ml): 3; MIC of fusidic acid ([1]; PMEN 10 μg/ml): 3; MIC of fusidic acid ([1]; PMEN 30 μg/ml): 1; MIC of fusidic acid ([2]; PMEN 0 μg/ml): 300; MIC of fusidic acid ([2]; PMEN 0.3 μg/ml): 100; MIC of fusidic acid ([2]; PMEN 1.0 μg/ml): 30; MIC of fusidic acid ([2]; PMEN 3.0 μg/ml): 10; MIC of fusidic acid ([2]; PMEN 10 μg/ml): 3; MIC of fusidic acid ([2]; PMEN 30 μg/ml): 1
"CCOc1ccc2ccccc2c1C(=O)N[C@@H]1C(=O)N2[C@@H]1SC(C)(C)[C@@H]2C(=O)O [Nafcillin, nafcillin]",,,,,,,≥ 1000,≥ 1000,100,100,30,30,≥ 30 times,
"CO[C@@H]1[C@@H](OC(N)=O)[C@@H](O)[C@H](Oc2ccc3c(O)c(NC(=O)c4ccc(O)c(CC=C(C)C)c4)c(=O)oc3c2C)OC1(C)C [Novobiocin, novobiocin]",10 times,30 µg/mL,10 µg/mL,10 µg/mL,3 µg/mL,3 µg/mL,≥ 100,10,3,3,1,1,≥ 100 times,
CO[C@H]1/C=C/O[C@@]2(C)Oc3c(C)c(O)c4c(O)c(c(/C=N/N5CCN(C)CC5)c(O)c4c3C2=O)NC(=O)/C(C)=C\C=C\[C@H](C)[C@H](O)[C@@H](C)[C@@H](O)[C@@H](C)[C@H](OC(C)=O)[C@@H]1C [Rifampicin],100 times,3 µg/mL,3 µg/mL,0.1 µg/mL,0.03 µg/mL,0.03 µg/mL,,,,,,,,
